Experimental data as given in patent publication US8802597B2, “Herbicidal pyrimidines” (E I du Pont de Nemours and Company, priority 2003, dated 2014).
Like-named read-outs stand apart in the source and are kept apart here.

How the values were obtained:
Assay in all cases: Test C pre/postemergence
Assay type in all cases: in vivo
[1] = system: giant foxtail (Setaria faberii); conditions: Setaria faberi; for pest or weed control at 125 g/ha: 125 g ai/ha; for pest or weed control at 500 g/ha: 500 g ai/ha; for pest or weed control at 62 g/ha: 62 g ai/ha; for pest or weed control at 250 g/ha: 250 g ai/ha
Method in brief: (§1)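 We sprayed seeded pots preemergence and 2–18 cm seedlings postemergence with test chemicals in a non-phytotoxic solvent mixture including surfactant. Greenhouse plants were visually compared with untreated controls at 12 to 14 days and scored 0 (no effect) to 100 (complete control).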

[2] = system: common (oilseed) sunflower (Helianthus annuus); conditions: Helianthus annuus, pre-emergence, Preemergence, read-out: Plant response rating, Sunflower
Method in brief: as §1

[3] = system: crabgrass (Digitaria sanguinalis); conditions: Digitaria sanguinalis; for pest or weed control at 62 g/ha: 62 g ai/ha; for pest or weed control at 125 g/ha: 125 g ai/ha; for pest or weed control at 250 g/ha: 250 g ai/ha; for pest or weed control at 500 g/ha: 500 g ai/ha
Method in brief: as §1

kochia (Kochia scoparia) = conditions: Bassia scoparia; for pest or weed control at 62 g/ha: 62 g ai/ha; for pest or weed control at 125 g/ha: 125 g ai/ha; for pest or weed control at 250 g/ha: 250 g ai/ha; for pest or weed control at 500 g/ha: 500 g ai/ha
Method in brief: as §1

[4] = system: common ragweed (Ambrosia elatior); conditions: Ambrosia artemisiifolia; for pest or weed control at 62 g/ha: 62 g ai/ha; for pest or weed control at 125 g/ha: 125 g ai/ha; for pest or weed control at 250 g/ha: 250 g ai/ha; for pest or weed control at 500 g/ha: 500 g ai/ha
Method in brief: as §1

[5] = system: woolly cupgrass (Eriochloa villosa); conditions: Eriochloa villosa; for pest or weed control at 62 g/ha: 62 g ai/ha; for pest or weed control at 125 g/ha: 125 g ai/ha; for pest or weed control at 250 g/ha: 250 g ai/ha; for pest or weed control at 500 g/ha: 500 g ai/ha
Method in brief: as §1

[6] = post-emergence, Postemergence, scale 0 to 100 (0 no effect, 100 complete control), read-out: Foxtail, Giant plant response rating
[7] = post-emergence, Postemergence, scale 0 to 100, read-out: Plant response rating, Foxtail, Giant
[8] = pre-emergence, Preemergence, scale 0 to 100, read-out: Plant response rating, Foxtail, Giant
[9] = post-emergence, Postemergence, scale 0 to 100 (0 no effect, 100 complete control), read-out: Crabgrass plant response rating
[10] = post-emergence, Postemergence, scale 0 to 100, read-out: Plant response rating, Crabgrass
[11] = pre-emergence, Preemergence, scale 0 to 100, read-out: Plant response rating, Crabgrass
[12] = post-emergence, Postemergence, scale 0 to 100 (0 no effect, 100 complete control), read-out: Kochia plant response rating
[13] = post-emergence, Postemergence, scale 0 to 100, read-out: Plant response rating, Kochia
[14] = pre-emergence, Preemergence, scale 0 to 100, read-out: Plant response rating, Kochia
[15] = post-emergence, Postemergence, scale 0 to 100 (0 no effect, 100 complete control), read-out: Ragweed plant response rating
[16] = post-emergence, Postemergence, scale 0 to 100, read-out: Plant response rating, Ragweed
[17] = pre-emergence, Preemergence, scale 0 to 100, read-out: Plant response rating, Ragweed
[18] = post-emergence, Postemergence, scale 0 to 100 (0 no effect, 100 complete control), read-out: Cupgrass, Woolly plant response rating
[19] = post-emergence, Postemergence, scale 0 to 100, read-out: Plant response rating, Cupgrass, Woolly
[20] = pre-emergence, Preemergence, scale 0 to 100, read-out: Plant response rating, Cupgrass, Woolly

Compound: CNc1nc(C2CC2)nc(C(=O)OC)c1Br [Compound 5]
- pest or weed control at 125 g/ha [1, 6]: 30%
- pest or weed control at 500 g/ha [1, 7]: 60%
- pest or weed control at 62 g/ha [1, 6]: 20%
- pest or weed control at 250 g/ha [1, 7]: 50%
- pest or weed control at 62 g/ha ([1]; pre-emergence, Preemergence, scale 0 to 100, 0 no effect, 100 complete control, read-out: Plant response rating, Foxtail, Giant): 0%
- pest or weed control at 125 g/ha [1, 8]: 0%
- pest or weed control at 250 g/ha [1, 8]: 10%
- pest or weed control at 500 g/ha [1, 8]: 60%
- pest or weed control at 62 g/ha ([2]; 62 g ai/ha, scale 0 to 100, 0 no effect, 100 complete control): 60%
- pest or weed control at 125 g/ha ([2]; 125 g ai/ha, scale 0 to 100): 90%
- pest or weed control at 250 g/ha ([2]; 250 g ai/ha, scale 0 to 100): 100%
- pest or weed control at 500 g/ha ([2]; 500 g ai/ha, scale 0 to 100): 100%
- pest or weed control at 62 g/ha [3, 9]: 40%
- pest or weed control at 125 g/ha [3, 9]: 50%
- pest or weed control at 250 g/ha [3, 10]: 70%
- pest or weed control at 500 g/ha [3, 10]: 80%
- pest or weed control at 62 g/ha ([3]; pre-emergence, Preemergence, scale 0 to 100, 0 no effect, 100 complete control, read-out: Plant response rating, Crabgrass): 0%
- pest or weed control at 125 g/ha [3, 11]: 0%
- pest or weed control at 250 g/ha [3, 11]: 20%
- pest or weed control at 500 g/ha [3, 11]: 60%
- pest or weed control at 62 g/ha (kochia (Kochia scoparia); [12]): 100%
- pest or weed control at 125 g/ha (kochia (Kochia scoparia); [12]): 100%
- pest or weed control at 250 g/ha (kochia (Kochia scoparia); [13]): 100%
- pest or weed control at 500 g/ha (kochia (Kochia scoparia); [13]): 100%
- pest or weed control at 62 g/ha (kochia (Kochia scoparia); pre-emergence, Preemergence, scale 0 to 100, 0 no effect, 100 complete control, read-out: Plant response rating, Kochia): 80%
- pest or weed control at 125 g/ha (kochia (Kochia scoparia); [14]): 95%
- pest or weed control at 250 g/ha (kochia (Kochia scoparia); [14]): 100%
- pest or weed control at 500 g/ha (kochia (Kochia scoparia); [14]): 100%
- pest or weed control at 62 g/ha [4, 15]: 90%
- pest or weed control at 125 g/ha [4, 15]: 95%
- pest or weed control at 250 g/ha [4, 16]: 95%
- pest or weed control at 500 g/ha [4, 16]: 100%
- pest or weed control at 62 g/ha ([4]; pre-emergence, Preemergence, scale 0 to 100, 0 no effect, 100 complete control, read-out: Plant response rating, Ragweed): 85%
- pest or weed control at 125 g/ha [4, 17]: 90%
- pest or weed control at 250 g/ha [4, 17]: 100%
- pest or weed control at 500 g/ha [4, 17]: 100%
- pest or weed control at 62 g/ha [5, 18]: 5%
- pest or weed control at 125 g/ha [5, 18]: 50%
- pest or weed control at 250 g/ha [5, 19]: 50%
- pest or weed control at 500 g/ha [5, 19]: 70%
- pest or weed control at 62 g/ha ([5]; pre-emergence, Preemergence, scale 0 to 100, 0 no effect, 100 complete control, read-out: Plant response rating, Cupgrass, Woolly): 0%
- pest or weed control at 125 g/ha [5, 20]: 0%
- pest or weed control at 250 g/ha [5, 20]: 0%
- pest or weed control at 500 g/ha [5, 20]: 0%
